Reference: patent US8536307B2, “Anticalins” (Pieris AG, priority 1997, dated 2013)

Assays:
[1] = target: anticalin FluB, mutein of Pieris brassicae bilin-binding protein (Bbp): Asn34Gln, Ser35His, Val36Trp, Glu37Asp, Asn58Arg, His60Arg, Ile69His, Glu70Lys, Leu88Val (Pieris brassicae, UniProt P09464, E52D/E85K/F142H/H75R/I84H/K102S/K110R/K131R/K150M/L103V/N112G/N16D/N36Q/N49Q/N73R/Q140W/S50H/V108R/V51W/Y105R/Y129R); details: fluorescence titration, excitation 280 nm, emission 340 nm, 1 μM anticalin, PBS with 1 mM EDTA, pH 7.4, 25° C.
UniProt P09464, sequence (P09464 other isoform, or with tags, fused parts or gaps with the stated changes): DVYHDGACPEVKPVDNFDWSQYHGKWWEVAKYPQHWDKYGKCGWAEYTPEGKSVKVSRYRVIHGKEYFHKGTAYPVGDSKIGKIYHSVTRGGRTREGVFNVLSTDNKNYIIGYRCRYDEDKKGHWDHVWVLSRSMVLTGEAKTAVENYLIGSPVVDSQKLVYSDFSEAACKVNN

[2] = target: T1, anticalin FluA, mutein of Pieris brassicae bilin-binding protein (Bbp): Asn34Ser, Ser35Pro, Val36Asn, Glu37Gly, Asn58Arg, His60Asp, Ile69Met, Leu88Arg, Tyr90Val (Pieris brassicae, UniProt P09464, E111K/E52G/F142H/H75D/I84M/K102S/K110R/K131R/K150M/L103R/N112T/N16D/N36Q/N49S/N73R/Q140W/S50P/V108Y/V51N/Y105V/Y129S); details: fluorescence titration, excitation 280 nm, emission 340 nm, 1 μM anticalin, PBS with 1 mM EDTA, pH 7.4, 25° C.
T1 sequence (P09464 other isoform, or with tags, fused parts or gaps with the stated changes): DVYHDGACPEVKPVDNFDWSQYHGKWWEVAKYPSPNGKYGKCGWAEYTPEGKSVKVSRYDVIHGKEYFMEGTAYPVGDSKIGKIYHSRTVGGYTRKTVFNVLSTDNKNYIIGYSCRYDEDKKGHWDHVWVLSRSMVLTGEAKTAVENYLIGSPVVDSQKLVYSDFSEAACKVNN

[3] = target: recombinant Pieris brassicae bilin-binding protein (Bbp), parent (Pieris brassicae, UniProt P09464, K102S/K150M/N16D/N36Q); details: control experiment corresponding to that with FluA, excitation 490 nm, emission 512 nm
recombinant Pieris brassicae bilin-binding protein (Bbp), parent, sequence (P09464 other isoform, or with tags, fused parts or gaps K102S/K150M/N16D/N36Q): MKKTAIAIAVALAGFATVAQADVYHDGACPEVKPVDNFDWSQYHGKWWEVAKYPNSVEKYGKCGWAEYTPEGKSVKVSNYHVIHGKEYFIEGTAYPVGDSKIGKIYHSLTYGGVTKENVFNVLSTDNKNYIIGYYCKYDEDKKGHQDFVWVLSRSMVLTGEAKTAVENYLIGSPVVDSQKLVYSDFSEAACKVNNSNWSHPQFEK

[4] = target: T1, anticalin FluA, mutein of Pieris brassicae bilin-binding protein (Bbp): Asn34Ser, Ser35Pro, Val36Asn, Glu37Gly, Asn58Arg, His60Asp, Ile69Met, Leu88Arg, Tyr90Val; details: fluorescein 1 μM, excitation 490 nm, emission 512 nm, PBS with 1 mM EDTA, pH 7.4, 25° C.

Structure (SMILES)	Dissociation constant (Kd) [1] [nM]	Dissociation constant (Kd) [2] [nM]	Quenching of the fluorescence of fluorescein [3]	Quenching of the fluorescence intensity of fluorescein in the complex [4] [%]
Nc1ccc2c(c1)C(=O)OC21c2ccc(O)cc2Oc2cc(O)ccc21 [4-Aminofluorescein, 4-amino-fluorescein]	2840 ± 300	224 ± 6		
O=C1OC2(c3ccc(O)cc3Oc3cc(O)ccc32)c2ccccc21 [Fluorescein, fluorescein]	5730 ± 860	118 ± 14	no comparable fluorescence quenching was found	99.7±0.3
O=C(O)CCCC(=O)Nc1ccc2c(c1)C(=O)OC21c2ccc(O)cc2Oc2cc(O)ccc21 [4-Glutarylamidofluorescein, 4-glutarylamido-fluorescein]	4700 ± 510	601 ± 16		
